Results: the supplement of paper PMC10307832

Tests used:
Experiment in all cases: relative viability (nuclei count vs DMSO), 5 days (fraction); higher = more cells survive
[1] = system: UMC-11
How it was run: (§1)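 Nuclei were stained with Hoechst during a one-step fixation (final 0.05% Triton X-100, 1% formaldehyde, 1 ug/ml Hoechst) carried out 5 days after dosing, then counted on 4× images. The cells, lung cancer lines in 1536-well plates, had been dosed by pin tool the day after seeding with one drug alone or a fixed anchor-drug dose plus five library-drug doses (not always all listed) in √10 steps. Relative viability is the nuclei count in treated wells divided by that in vehicle wells, and each value is the median of duplicate plates.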

[2] = system: SK-LU-1
How it was run: as §1

[3] = system: NCI-H460
How it was run: as §1

[4] = system: NCI-H1944
How it was run: as §1

[5] = system: NCI-H1666
How it was run: as §1

[6] = system: HCC-78
How it was run: as §1

[7] = system: NCI-H1792
How it was run: as §1

[8] = system: HCC-366
How it was run: as §1

[9] = system: LC-2-ad
How it was run: as §1

[10] = system: HOP-62
How it was run: as §1

[11] = system: A-427
How it was run: as §1

[12] = system: NCI-H358
How it was run: as §1

[13] = system: EPLC-272H
How it was run: as §1

[14] = system: LU99A
How it was run: as §1

[15] = system: LXF-289
How it was run: as §1

[16] = system: NCI-H2170
How it was run: as §1

[17] = system: NCI-H2009
How it was run: as §1

[18] = system: COR-L 105
How it was run: as §1

[19] = system: NCI-H1915
How it was run: as §1

[20] = system: NCI-H2085
How it was run: as §1

O=c1cc(-c2cccc3c2Sc2ccccc2S3)oc(N2CCOCC2)c1 + C[C@@H](Oc1cc(-c2cnn(C3CCNCC3)c2)cnc1N)c1c(Cl)ccc(F)c1Cl [Crizotinib] (partner 1 µM)
relative viability ([1]; first compound 0.08 µM): 0.729 | relative viability ([1]; first compound 0.253 µM): 0.566 | relative viability ([1]; first compound 0.8 µM): 0.729 | relative viability ([1]; first compound 2.53 µM): 0.644 | relative viability ([1]; first compound 8 µM): 0.701 | relative viability ([2]; first compound 0.08 µM): 0.812 | relative viability ([2]; first compound 0.253 µM): 1.04 | relative viability ([2]; first compound 0.8 µM): 1.14 | relative viability ([2]; first compound 2.53 µM): 0.905 | relative viability ([2]; first compound 8 µM): 0.849 | relative viability ([3]; first compound 0.08 µM): 1 | relative viability ([3]; first compound 0.8 µM): 0.761 | relative viability ([3]; first compound 2.53 µM): 1.12 | relative viability ([3]; first compound 8 µM): 1.79 | relative viability ([4]; first compound 0.08 µM): 1.12 | relative viability ([4]; first compound 0.253 µM): 1.23 | relative viability ([4]; first compound 0.8 µM): 1.17 | relative viability ([4]; first compound 8 µM): 1.08 | relative viability ([5]; first compound 0.08 µM): 0.911 | relative viability ([5]; first compound 0.253 µM): 1.04 | relative viability ([5]; first compound 0.8 µM): 0.922 | relative viability ([5]; first compound 2.53 µM): 0.916 | relative viability ([5]; first compound 8 µM): 0.857 | relative viability ([6]; first compound 0.08 µM): 0.286 | relative viability ([6]; first compound 0.253 µM): 0.34 | relative viability ([6]; first compound 0.8 µM): 0.291 | relative viability ([6]; first compound 2.53 µM): 0.342 | relative viability ([6]; first compound 8 µM): 0.34 | relative viability ([7]; first compound 0.253 µM): 1.64 | relative viability ([7]; first compound 0.8 µM): 0.987 | relative viability ([7]; first compound 2.53 µM): 0.896 | relative viability ([7]; first compound 8 µM): 1.19 | relative viability ([8]; first compound 0.08 µM): 0.53 | relative viability ([8]; first compound 0.253 µM): 0.731 | relative viability ([8]; first compound 0.8 µM): 0.725 | relative viability ([8]; first compound 2.53 µM): 0.498 | relative viability ([8]; first compound 8 µM): 1.1 | relative viability ([9]; first compound 0.08 µM): 0.392 | relative viability ([9]; first compound 0.253 µM): 0.499 | relative viability ([9]; first compound 0.8 µM): 0.525 | relative viability ([9]; first compound 2.53 µM): 0.436 | relative viability ([9]; first compound 8 µM): 0.509 | relative viability ([10]; first compound 0.08 µM): 0.842 | relative viability ([10]; first compound 0.253 µM): 0.998 | relative viability ([10]; first compound 0.8 µM): 0.989 | relative viability ([10]; first compound 2.53 µM): 0.653 | relative viability ([10]; first compound 8 µM): 0.904 | relative viability ([11]; first compound 0.08 µM): 0.988 | relative viability ([11]; first compound 0.253 µM): 0.661 | relative viability ([11]; first compound 0.8 µM): 1.02 | relative viability ([11]; first compound 2.53 µM): 0.86 | relative viability ([11]; first compound 8 µM): 0.791 | relative viability ([12]; first compound 0.08 µM): 0.629 | relative viability ([12]; first compound 0.253 µM): 0.634 | relative viability ([12]; first compound 0.8 µM): 0.657 | relative viability ([12]; first compound 2.53 µM): 0.466 | relative viability ([12]; first compound 8 µM): 0.574 | relative viability ([13]; first compound 0.08 µM): 0.786 | relative viability ([13]; first compound 0.253 µM): 0.891 | relative viability ([13]; first compound 0.8 µM): 1.19 | relative viability ([13]; first compound 2.53 µM): 0.963 | relative viability ([13]; first compound 8 µM): 1.08 | relative viability ([14]; first compound 0.08 µM): 0.552 | relative viability ([14]; first compound 0.253 µM): 0.574 | relative viability ([14]; first compound 0.8 µM): 0.932 | relative viability ([14]; first compound 2.53 µM): 0.596 | relative viability ([14]; first compound 8 µM): 0.701 | relative viability ([15]; first compound 0.08 µM): 0.839 | relative viability ([15]; first compound 0.253 µM): 0.877 | relative viability ([15]; first compound 0.8 µM): 0.849 | relative viability ([15]; first compound 2.53 µM): 0.8 | relative viability ([15]; first compound 8 µM): 0.845 | relative viability ([16]; first compound 0.08 µM): 1.17 | relative viability ([16]; first compound 0.253 µM): 1.19 | relative viability ([16]; first compound 0.8 µM): 1.31 | relative viability ([16]; first compound 2.53 µM): 1.12 | relative viability ([16]; first compound 8 µM): 1.26 | relative viability ([17]; first compound 0.08 µM): 1.02 | relative viability ([17]; first compound 0.253 µM): 1.02 | relative viability ([17]; first compound 0.8 µM): 1.05 | relative viability ([17]; first compound 2.53 µM): 0.957 | relative viability ([17]; first compound 8 µM): 1.03 | relative viability ([18]; first compound 0.08 µM): 0.833 | relative viability ([18]; first compound 0.253 µM): 0.706 | relative viability ([18]; first compound 0.8 µM): 0.752 | relative viability ([18]; first compound 2.53 µM): 0.798 | relative viability ([18]; first compound 8 µM): 1.07 | relative viability ([19]; first compound 0.08 µM): 1.02 | relative viability ([19]; first compound 0.253 µM): 0.987 | relative viability ([19]; first compound 0.8 µM): 1.02 | relative viability ([19]; first compound 2.53 µM): 0.905 | relative viability ([19]; first compound 8 µM): 0.847 | relative viability ([20]; first compound 0.08 µM): 0.913 | relative viability ([20]; first compound 0.253 µM): 1.06 | relative viability ([20]; first compound 0.8 µM): 0.939 | relative viability ([20]; first compound 2.53 µM): 0.832 | relative viability ([20]; first compound 8 µM): 0.93
